What was measured:
[1] = target: binding of RAGE tail (ctRAGE) to DIAPH1 (Homo sapiens (Human), UniProt Q15109); assay: Primary screen (high-throughput): blocking of GFP RAGE tail binding to DIAPH1; settings: for inhibition at 10 µM: Table 1
Experimental: […] Compounds that reduced binding of RAGE tail (ctRAGE) by at least 50% were then selected and subjected to 4-point dose response (10 uM, 1 uM, 0.1 uM and 0.01 uM).
• Step 1. Add 50 μl anti-DIAPH1 (1:160 dilution in 0.1M NaHCO3 pH 9.6)/well. Incubate overnight at 4° C. Day 2 • Step 2. Use the plate washer to aspirate anti-DIAPH11 and wash plates 4× with PBS 100 μl per well per wash. • Step 3. Add 180 μl 3% BSA in 1×PBS. Incubate for 1.5 hrs at room temperature Step 4. Use the plate washer to aspirate the blocking solution and wash 5× with PBS 300 μl per well. • Step 5. Add 50 μl of DIAPH1 containing lysate (85 μg) and incubate at RT for 3 hours. • Step 6. Aspirate the lysate and wash the plate 5×(100 μl) on the plate washer. • Step 7. Add 25 μl PBS to the wells. • Step 8. Add 0.5 μL compound per well. • Step 9. Add 24.5 μL GFP RAGE tail (125 nM) into each well for 2 hrs at room temperature. • Step 10. Aspirate and wash 5× with PBS (100 μL) on the plate washer. • Step 11. Add 100 μl PBS in each well. • Step 12. Detection: Read on fluorescence plate reader excitation […] and 485 nm emission
Compounds that blocked the binding of RAGE tail to DIAPH1 by 50% or more were subjected to 4 point dose response: 10 μM, 1 μM, 0.1 μM and 0.01 μM.

[2] = system: Murine vascular smooth muscle cells (SMCs); assay: Smooth muscle cell migration assay (wounding assay), RAGE ligand CML-AGE; assay type: cell-based; parameters: key to SMC migration Assay, IC50 (nM): ****: No inhibition or bad fit or inhibition out of range; settings: CML-AGE 10 μg/ml, 7 h; for IC50: Mus musculus, read-out: SMC migration Assay, IC50
Experimental: FIG. 4 depicts effects of compounds on RAGE ligand-stimulated migration of murine aortic smooth muscle cells (SMCs). Migration of SMCs after incubation with the indicated RAGE inhibitor compounds or the parent molecule (“C12”) quinolone from the Chem-Bridge library was assessed. SMCs were grown to confluence and serum-starved overnight. The following morning, serum free media was removed and compounds were added (1 μM). Immediately following the addition of compounds, the monolayer was wounded using a p200 pipette tip and allowed to incubate for 1.5 h. Following this incubation, compounds were removed and fresh media containing RAGE ligand, CML-AGE (10 μg/ml), was added for 7 h. All images were measured at TO and T7 h and an area ingrowth of effective migrating cells was calculated. Each compound was tested in three independent wells and each well was photographed in 3 separate locations for a total of 9 images used in assessing area ingrowth. Error bars represent SEM. * indicates p<0.05 comparing CML-AGE vs. CML-AGE and compound treatment and # indicates p<0.001 comparing CML-AGE vs. serum free medium (SFM) vehicle. Note that SFM is the vehicle into which the RAGE ligand, CML-AGE, is added for testing the effect of RAGE ligand.
Murine vascular smooth muscle cells (SMCs) were cultured from the aortas of 10-week old male mice using a modification of the procedure of Travo and Barret^17. SMCs were cultured following an explant protocol in accordance with institutional guidelines. Wild-type murine aortic vascular SMCs were isolated and used between passages 8 to 12. Migration in response to the RAGE ligand CML-AGE (CML, 10 μg/ml) or a general effector, not a RAGE ligand, PDGF-BB, 10 ng/ml (R&D systems, Minneapolis, Minn., USA) was assessed with a wounding assay. Cells were grown to confluence in 12-well plates and starved overnight. The following morning, serum free media was removed and compounds were added. Immediately following the addition of compounds, the monolayer was wounded using a p200 pipette tip and the compounds were allowed to incubate for 1.5 h. Following this incubation, all compounds were removed and fresh media containing RAGE ligand or general effector, PDGF-BB, was added for 7 h. Cells were maintained at 37° C. and 5% CO2. Images were obtained at TO and T7. Each image was measured and an area ingrowth of effective migrating cells was calculated. The SMC migration assay data for representative compounds, Compounds 229 and 247, is depicted in FIGS. 5a and 5b, respectively.

ctRAGE = ctRAGE (Homo sapiens (Human), UniProt Q15109); assay: Fluorescence binding assay (native tryptophan fluorescence titration); parameters: key to Fluorescent Binding Assay, Kd (nM): ***: No binding; settings: 10 nM ctRAGE, pH 7.0, 5% DMSO; for Kd: read-out: Fluorescent Binding Assay, Kd
Experimental: Native tryptophan fluorescence experiments were conducted using a Horiba Jobin Yvon Fluorolog spectrofluorometer. 1 mM of compound was dissolved in 10 mM phosphate buffer [pH 7.0] and 50% DMSO. ctRAGE was bacterially expressed and purified as described^1. 10 nM ctRAGE solution was individually titrated from 0.1 nM-100 μM with the compounds in 100 μL of 10 mM phosphate buffer [pH 7.0] and 5% DMSO. The excitation and emission wavelengths were 280 nm and 352 nm, respectively. Dissociation constants, Kd, were estimated from the changes in peak fluorescence intensities as a function of the free compound concentration by using Prism 5 software (GraphPad). Data were fit to the equation, (F−F0)/Fmax=[compound]/(Kd+[compound]) where F is the fluorescence intensity at a given compound concentration, F0 is the fluorescence intensity of the blank, and Fmax is the maximum fluorescence intensity.

ctRAGE, sequence (Q15109 364-404): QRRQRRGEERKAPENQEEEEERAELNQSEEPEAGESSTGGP
binding of RAGE tail (ctRAGE) to DIAPH1, sequence (Q15109 364-404): as above

SMILES	inhibition at 10 µM [1]	SMC migration Assay, IC50 (nM) [2]	Kd (ctRAGE)	also measured
COC(=O)c1cc(-c2ccc(OC)cc2)nc2ccccc12 [Compound 1]	51%	–	–	–
COC(=O)c1cc(-c2ccccc2)nc2cc(C)ccc12 [Compound 2]	27%	–	–	–
CCCNC(=O)c1cc(-c2ccc(NC(=O)CC)cc2)nc2ccccc12 [Compound 3]	36%	–	–	–
CC(=O)Nc1ccc(-c2cc(C(=O)NCCN(C)C)c3ccccc3n2)cc1 [Compound 4, 2-(4-Acetamidophenyl)-N-(2-(dimethylamino)ethyl)quinoline-4-carboxamide]	45%	–	–	–
CC(=O)Nc1ccc(-c2cc(C(=O)N3CCOCC3)c3ccccc3n2)cc1 [Compound 5, N-(4-(4-(Morpholine-4-carbonyl)quinolin-2-yl)phenyl)acetamide]	34%	–	–	–
COCCNC(=O)c1cc(-c2ccc(NC(C)=O)cc2)nc2ccccc12 [Compound 6]	17%	–	–	–
CC(=O)Nc1ccc(-c2cc(C(=O)N3CCCC3)c3ccccc3n2)cc1 [Compound 7]	29%	–	–	–
COC(=O)c1cc(-c2ccncc2)nc2ccccc12 [Compound 8]	64%	–	–	–
CC(=O)Nc1ccc(-c2cc(C(=O)O)c3ccccc3n2)cc1 [Compound 9]	25%	–	–	–
COC(=O)c1cc(-c2ccccc2C)nc2ccccc12 [Compound 10]	28%	–	–	–
CNC(=O)c1cc(-c2ccc(C)cc2)nc2ccccc12 [Compound 11]	34%	–	–	–
CC(=O)Nc1ccc(-c2cc(CN3CCOCC3)c3cccc(Cl)c3n2)cc1 [Compound 110, N-(4-(8-Chloro-4-(morpholinomethyl)quinolin-2-yl)phenyl)acetamide]	–	–	–	inhibition at 12.5 µM ([1]; 12.5 μM, Table 2): 20%
CC(=O)Nc1ccc(-c2cc(CNCCN(C)C)c3ccccc3n2)cc1 [Compound 239, N-(4-(4-(((2-(dimethylamino)ethyl)amino)methyl)quinolin-2-yl)phenyl)acetamide]	–	****	13 nM	–
CC(=O)Nc1ccc(-c2cc(CN(C)CCN(C)C)c3ccccc3n2)cc1 [Compound 240, N-(4-(4-(((2-(dimethylamino)ethyl)(methyl)amino)methyl)quinolin-2-yl)phenyl)acetamide]	–	****	–	Fluorescent Binding Assay, Kd (nM) (ctRAGE): ***
CNCCNCc1cc(-c2ccc(NC(C)=O)cc2)nc2ccccc12 [Compound 241, N-(4-(4-(((2-(methylamino)ethyl)amino)methyl)quinolin-2-yl)phenyl)acetamide]	–	****	11 nM	–
CNCCN(C)Cc1cc(-c2ccc(NC(C)=O)cc2)nc2ccccc12 [Compound 242, N-(4-(4-((methyl(2-(methylamino)ethyl)amino)methyl)quinolin-2-yl)phenyl)acetamide]	–	–	8 nM	IC50 [2]: 44 nM
CC(=O)Nc1ccc(-c2cc(CCCN3CCOCC3)c3ccccc3n2)cc1 [Compound 243, N-(4-(4-(3-morpholinopropyl)quinolin-2-yl)phenyl)acetamide]	–	****	–	Fluorescent Binding Assay, Kd (nM) (ctRAGE): ***
CC(=O)Nc1ccc(-c2cc(CN3CCN(C(=O)OC(C)(C)C)CC3)c3ccccc3n2)cc1 [Compound 244, tert-butyl 4-((2-(4-acetamidophenyl)quinolin-4-yl)methyl)piperazine-1-carboxylate]	–	****	54 nM	–
CC(=O)Nc1ccc(-c2cc(CN3CCN(C)CC3)c3ccccc3n2)cc1 [Compound 245, N-(4-(4-((4-methylpiperazin-1-yl)methyl)quinolin-2-yl)phenyl)acetamide]	–	****	–	Fluorescent Binding Assay, Kd (nM) (ctRAGE): ***
CC(=O)Nc1ccc(-c2cc(CN3CCN(C(C)=O)CC3)c3ccccc3n2)cc1 [Compound 246, N-(4-(4-((4-acetylpiperazin-1-yl)methyl)quinolin-2-yl)phenyl)acetamide]	–	****	–	Fluorescent Binding Assay, Kd (nM) (ctRAGE): ***
CC(=O)Nc1ccc(-c2cc(CN3CCCCC3)c3ccccc3n2)cc1 [Compound 247, N-(4-(4-(piperidin-1-ylmethyl)quinolin-2-yl)phenyl)acetamide]	–	–	2 nM	IC50 [2]: 1 nM
Cc1nc2ccc(-c3cc(CN4CCOCC4)c4ccccc4n3)cc2[nH]1 [Compound 248, 4-((2-(2-methyl-1H-benzo[d]imidazol-6-yl)quinolin-4-yl)methyl)morpholine]	–	****	–	Fluorescent Binding Assay, Kd (nM) (ctRAGE): ***
Cc1nc2ccc(-c3cc(CN4CCOCC4)c4ccccc4n3)cc2o1 [Compound 249, 2-methyl-6-(4-(morpholinomethyl)quinolin-2-yl)benzo[d]oxazole]	–	****	–	Fluorescent Binding Assay, Kd (nM) (ctRAGE): ***
CC(=O)Nc1ccc(-c2cc(CN3CCOCC3)c3ccc(F)cc3n2)cc1F [Compound 250, N-(2-fluoro-4-(7-fluoro-4-(morpholinomethyl)quinolin-2-yl)phenyl)acetamide]	–	–	81 nM	IC50 [2]: 40 nM
CC(=O)Nc1ccc(-c2cc(CN3CCOCC3)c3ccc(F)cc3n2)cc1Cl [Compound 251, N-(2-chloro-4-(7-fluoro-4-(morpholinomethyl)quinolin-2-yl)phenyl)acetamide]	–	****	168 nM	–
CC(=O)Nc1ccc(-c2cc(CN3CCOCC3)c3ccc(F)cc3n2)cc1C#N [Compound 252, N-(2-cyano-4-(7-fluoro-4-(morpholinomethyl)quinolin-2-yl)phenyl)acetamide]	–	–	29 nM	IC50 [2]: 61 nM
CC(=O)Nc1ccc(-c2cc(CN3CCOCC3)c3ccc(Cl)cc3n2)cc1F [Compound 253, N-(4-(7-chloro-4-(morpholinomethyl)quinolin-2-yl)-2-fluorophenyl)acetamide]	–	–	1300 nM	IC50 [2]: 1200 nM
CC(=O)Nc1ccc(-c2cc(CN3CCOCC3)c3ccc(Cl)cc3n2)cc1Cl [Compound 254, N-(2-chloro-4-(7-chloro-4-(morpholinomethyl)quinolin-2-yl)phenyl)acetamide]	–	–	1340 nM	IC50 [2]: 2000 nM
CC(=O)Nc1ccc(-c2cc(CN3CCOCC3)c3ccc(Cl)cc3n2)cc1C#N [Compound 255, N-(4-(7-chloro-4-(morpholinomethyl)quinolin-2-yl)-2-cyanophenyl)acetamide]	–	****	137 nM	–
COc1ccc2c(CN3CCOCC3)cc(-c3ccc(NC(C)=O)c(F)c3)nc2c1 [Compound 256, N-(2-fluoro-4-(7-methoxy-4-(morpholinomethyl)quinolin-2-yl)phenyl)acetamide]	–	****	5800 nM	–
